Reference: US9421203B2, “Sensitization of cancer cells to DNA damage by inhibiting kinases essential for DNA damage checkpoint control” (Institute for Cancer Research, priority 2012, dated 2016)
Entries after “also recorded” stand apart in the source; their conditions may differ.

Columns and labels:
[1] = system: Ba/F3 cells expressing the Bcr-Abl mutant (T3151); assay: Viability of Ba/F3 cells expressing Bcr-Abl mutant with bendamustine; format: cell-based; settings: Bos-I 1000 nM (FIG. 9B)
Method: (§1) FIGS. 9A and 9B show the viability of Ba/F3 cells either expressing (FIG. 9A) the Bcr-Abl wild-type (WT) or (FIG. 9B) the Bcr-Abl mutant (T3151) kinases (lower) treated with increasing concentrations of bendamustine alone or with the addition of Bos-1 (1000 nM).
(§2) It is believed that inhibitors of Src and Abl tyrosine kinases may be effective as a single agent in the treatment of CML (Chronic myelogenous leukemia) where it contains a specific chromosome translocation that fuses the Abl kinase to the Bcr gene. Inhibitors of the Bcr/Abl fusion kinase, such as imatinib and bostunib (Formula I), are effective in the treatment of CML, but resistance (at least for imatinib) invariably occurs. Resistance to imatinib occurs most often as a result of mutations at the gatekeeper position (Threonine 315) within the Abl kinase domain. Such mutants no longer respond to inhibitors such as imatinib. […] (FIG. 9A and FIG. 9B). It is believed that the activity of Bosutinib-isomer against wild type and T3151 mutant is likely mediated through its off-target effects against the DNA damage checkpoint kinases, Wee1 and Chk1.

[2] = system: Tyr15 phosphorylation of Cdc2; assay: Tyr15 phosphorylation of Cdc2 in gemcitabine treated PANC1 cells; format: cell-based; settings: PANC1 cells treated with gemcitabine
Description: Inhibition of Tyr15 phosphorylation was not observed for dasatnib, which is fully consistent with its in vitro kinase profile, and its inability to override the DNA damage checkpoint.

PANC1 cells [3] = assay: Time-lapse video-microscopy of checkpoint override (premature mitosis) in PANC1 cells; format: cell-based; settings: gemcitabine 24 h, then inhibitor 1 μM (UCN-01 100 nM), time-lapse 24 hours
Method: PANC1 cells were treated with gemcitabine for 24 hours before the addition of kinase inhibitors (1 μM), and filming commenced thereafter.
Time-lapse video microscopy was used to document the fates of cells treated with gemcitabine with and without the Chk1 inhibitor, UCN-01 (FIG. 3).

EGF-1 cells = assay: Immunofluorescence of checkpoint override in patient-derived pancreatic cancer cell line EGF-1; format: cell-based; settings: arrest imposed by either gemcitabine or doxorubicin
Description: Quantification of the percentage of cells that enter mitosis/override the checkpoint after treatment with either gemcitabine or doxorubicin is shown (right panel).
Tumor cells were isolated under an IRB-approved protocol and passaged as xenografts in mice. EGF-1 is a cell line that was derived from F1 tumors and used for in vitro studies.

PANC1 cells [4] = assay: Immunofluorescence of mitotic figures in gemcitabine-arrested cells; format: cell-based; settings: UCN-01 100 nM or Bos-I 1000 nM (FIG. 4)
Description: Shown are representative images of cells from each treatment.
The mitotic figures of cells forced into mitosis by the newly identified sensitizers were examined to determine how they compared to checkpoint override by UCN-01. […] The defects include two lobes of chromatin that lie outside of the spindle, with the detached kinetochores lying within the spindle.
It was observed that overriding the gemcitabine induced S phase checkpoint arrest with Chk1 inhibitors (UCN-01) results in a discrete and reproducible mitotic defect called MUGs (mitotically unreplicated genomes). The defining feature of MUGs is the unreplicated centromeres in the genome are physically detached from the chromosome mass (FIG. 4).

Wee 1 = Wee 1 (Homo sapiens, UniProt P30291); assay: IC50 / kinase assay toward recombinant Wee1 (MBP or Cdc2 substrate); format: biochemical; settings: Cdc2 as substrate; data not shown
PANC1 cells [5] = assay: Clonogenic survival assay in PANC1 cells; format: cell-based; settings: gemcitabine 10 nM 24 h
Method: Surviving colonies were determined 10 days later. […] After this time all drugs were removed and cells were plated to determine their efficiency of colony formation after 10 days.

[6] = system: 300 recombinant human protein kinases; settings: of 300 recombinant human kinases; database / Anastassiadis 2011; cited from earlier work
PANC1 cells [7] = assay: cells; format: cell-based; settings: for viability of gemcitabine treated PANC1 cells: gemcitabine 10 nM 24 h, then inhibitor 1 μM for 48 h (FIG. 1A)
Method: FIGS. 7A-7D show the viability of PANC1 cells treated with increasing concentrations of (FIG. 7A) doxorubicin or (FIG. 7B) cisplatin (24 h) before the addition of UCN-01 (100 nM) or Bos-I (1000 nM) for a further 48 hours.
Identification of clinically relevant kinase inhibitors that sensitize cells to gemcitabine. In the experiments described in this Example, the general protocol was to treat pancreatic cancer cell line (Panc-1) with a dose of gemcitabine that induces DNA damage and arrests cell cycle progression. A panel of nine different clinically relevant kinase inhibitors (FIG. 1A) were added to gemcitabine treated cells, and were assessed for their ability to enhance killing of pancreatic cancer cells to gemcitabine. PANC1 cells were treated with a sub-lethal (IC20) concentration of gemcitabine (10 nM) for 24 hours (a time and concentration sufficient to induce DNA damage and S phase arrest) and kinase inhibitors (all at 1 μM final) were added for another 48 h before cell viability was measured. UCN-01, a Chk1 inhibitor that is established as a sensitizer of gemcitabine was included as a positive control.

[8] = system: Ba/F3 cells expressing the Bcr-Abl wild-type (WT); assay: Viability of Ba/F3 cells expressing Bcr-Abl wild-type with bendamustine; format: cell-based; settings: Bos-I 1000 nM (FIG. 9A)
Method: as §1, §2

PANC1 cells [9] = format: cell-based; settings: for sensitization of PANC1 cells to gemcitabine: increasing gemcitabine 24 h, then UCN-01 100 nM, bosutinib or sunitinib 1 μM for 48 h (FIG. 1B)
Mia-PaCa-II cells = assay: Mia-PaCa-II cell viability after gemcitabine followed by authentic bosutinib; format: cell-based; settings: authentic bosutinib at 2.5 μM and 5 μM (FIG. 7D)

Wee 1, sequence (P30291 whole entry): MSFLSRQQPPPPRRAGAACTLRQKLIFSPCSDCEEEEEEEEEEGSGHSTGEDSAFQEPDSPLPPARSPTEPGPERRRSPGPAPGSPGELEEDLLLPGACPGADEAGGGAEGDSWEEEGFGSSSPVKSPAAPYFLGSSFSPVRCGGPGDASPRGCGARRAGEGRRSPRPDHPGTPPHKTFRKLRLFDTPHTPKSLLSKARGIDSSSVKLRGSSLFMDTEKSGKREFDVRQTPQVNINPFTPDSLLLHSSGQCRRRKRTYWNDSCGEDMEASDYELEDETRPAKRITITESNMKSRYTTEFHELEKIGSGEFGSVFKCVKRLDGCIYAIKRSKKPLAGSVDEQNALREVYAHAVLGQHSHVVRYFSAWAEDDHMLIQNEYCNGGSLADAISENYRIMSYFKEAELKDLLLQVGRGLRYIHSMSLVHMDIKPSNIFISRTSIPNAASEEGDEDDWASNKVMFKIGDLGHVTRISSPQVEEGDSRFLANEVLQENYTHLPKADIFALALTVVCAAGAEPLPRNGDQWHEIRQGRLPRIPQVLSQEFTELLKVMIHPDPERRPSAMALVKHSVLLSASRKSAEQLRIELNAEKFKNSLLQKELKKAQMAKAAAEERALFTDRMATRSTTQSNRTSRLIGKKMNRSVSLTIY

Structure (SMILES): COc1cc2c(Nc3cc(Cl)c(OC)c(Cl)c3)c(C#N)cnc2cc1OCCCN1CCN(C)CC1 [Bosutinib isomer, Bosutinib-I]
- killing of cells in combination with Bendamustine [1]: enhanced killing of cells
- Tyr15 phosphorylation of Cdc2 [2]: dose-dependent inhibition of Tyr15 phosphorylation
- checkpoint override / premature entry into mitosis (PANC1 cells [3]): increased the number of mitotic cells
- premature entry into mitosis / checkpoint override in EGF-1 cells (EGF-1 cells): able to prematurely enter mitosis after overriding checkpoint arrests
- mitotic figures of gemcitabine-arrested cells (PANC1 cells [4]): abnormal mitotic figures from gemcitabine-arrested cells that were nearly indistinguishable from UCN-01 treatment
- Wee1 inhibitory activity against physiologically relevant substrate Cdc2 (Wee 1): recapitulated the studies that used MBP as a substrate
- sensitization to killing by gemcitabine, clonogenic survival (PANC1 cells [5]; compound 1 μM for 3 h, colonies after 10 days (FIG. 2, FIG. 6)): sensitized cells to killing by gemcitabine
- number of kinases inhibited by more than 50% [6]: 84
- sensitization of PANC1 cells to doxorubicin (PANC1 cells [7]; 1 μM of the isomer (FIG. 7A)): sensitization by the bosutinib isomer was observed
- sensitization of PANC1 cells to cisplatin (PANC1 cells [7]; 1 μM of the isomer (FIG. 7B)): sensitization by the bosutinib isomer was observed
- sensitization to gemcitabine at 1 uM (PANC1 cells [7]; PANC1, 1 uM, MTS assay and clonogenic assays): sensitized cells to gemcitabine
- viability of gemcitabine treated PANC1 cells (PANC1 cells [7]): reduced the viability of gemcitabine treated cells in a dose-dependent manner
- killing of cells in combination with Bendamustine [8]: enhanced killing of cells

Structure (SMILES): CN[C@@H]1C[C@H]2O[C@@](C)([C@@H]1OC)n1c3ccccc3c3c4c(c5c6ccccc6n2c5c31)C(=O)N[C@@H]4O [UCN-01]
- checkpoint override / premature entry into mitosis (PANC1 cells [3]): forced cells to prematurely enter mitosis; also recorded: increased the number of cells that entered mitosis
- mitotic figures of gemcitabine-arrested cells (PANC1 cells [4]): severely perturbed mitotic figures
- sensitization of PANC1 cells to gemcitabine (PANC1 cells [9]): sensitized cells to gemcitabine

Structure (SMILES): Cn1c(=O)n(-c2ccc(C(C)(C)C#N)cc2)c2c3cc(-c4cnc5ccccc5c4)ccc3ncc21 [BEZ-235]
- viability of gemcitabine treated PANC1 cells (PANC1 cells [7]): significantly reduced viability of cells treated with gemcitabine

Structure (SMILES): Nc1ccn([C@@H]2O[C@H](CO)[C@@H](O)C2(F)F)c(=O)n1 [gemcitabine, Gemcitabine]
- CC50 (PANC1 cells [7]; Homo sapiens, PANC-1, read-out: LC50 of gemcitabine alone): > 0.03 µM

Structure (SMILES): COc1cc(Nc2c(C#N)cnc3cc(OCCCN4CCN(C)CC4)c(OC)cc23)c(Cl)cc1Cl [Authentic bosutinib, Bosutinib]
- sensitization of Mia-PaCa-II cells to gemcitabine (Mia-PaCa-II cells): sensitized to gemcitabine
- checkpoint override / premature entry into mitosis (PANC1 cells [3]): able to override the checkpoint and force cells into premature mitosis
- minimum effective concentration to sensitize cells to gemcitabine (PANC1 cells [9]; PANC1, titration of sensitizer): 750 nM
- sensitization of PANC1 cells to gemcitabine (PANC1 cells [9]): sensitized cells to gemcitabine
- sensitization to killing by gemcitabine, clonogenic survival (PANC1 cells [5]; compound 0.5 μM for 3 h, colonies after 10 days (FIG. 2)): not
- number of kinases inhibited by more than 50% [6]: 84/300
- viability of gemcitabine treated PANC1 cells (PANC1 cells [7]): significantly reduced viability of cells treated with gemcitabine
